Literature values, collected in patent US20150147356A1, “ANTIPYRETICS TO ENHANCE TOLERABILITY OF VESICLE-BASED VACCINES” (priority 2011, published 2015).
Where “and” joins values, the source holds several entries; their conditions need not be identical. Equal values may be shown once.

How the values were obtained:
[1] = in vivo
[2] = in vivo; remark: listed apart in the source

SMILES | duration of action [1] | Therapeutic blood level | half-life [2]
CC(C)Cc1ccc(C(C)C(=O)O)cc1 (stereo not shown) [Ibuprofen, ibuprofen] | about 4 hours | 10-50 μg/ml and 49-243 μM | –
CC(=O)Nc1ccc(O)cc1 [paracetamol, paracetamol (acetaminophen)] | – | 10-30 μg/ml and 66-199 μM | about 3 hours
